Legend:
IGS4 = experiment: Basal intracellular cAMP in CHOGα16-IGS4 cells; format: cell-based, human; conditions: 1 and 10 μM; data not shown
IGS4B = biological target: T1, IGS4B (Homo sapiens, UniProt Q9GZQ4, A395T/F315L/M388V/P383L/S298T); experiment: FLIPR intracellular calcium mobilisation in CHOGα16-IGS4 cells (IGS4B); format: cell-based; conditions: for maximal activation of IGS4B: comparison among the three neuromedin U isoforms; for IGS4-mediated calcium mobilisation in the FLIPR assay: range 10^−6–10^−12 M, IGS4B
T1 construct: expressed in transfected cells; host or cells: CHOGα16 (CHO cells stably expressing Gα16, Molecular Devices), transfected with IGS4-pcDNA3.1
T1 sequence (Q9GZQ4 whole entry S298T/F315L/P383L/M388V/A395T, canonical isoform): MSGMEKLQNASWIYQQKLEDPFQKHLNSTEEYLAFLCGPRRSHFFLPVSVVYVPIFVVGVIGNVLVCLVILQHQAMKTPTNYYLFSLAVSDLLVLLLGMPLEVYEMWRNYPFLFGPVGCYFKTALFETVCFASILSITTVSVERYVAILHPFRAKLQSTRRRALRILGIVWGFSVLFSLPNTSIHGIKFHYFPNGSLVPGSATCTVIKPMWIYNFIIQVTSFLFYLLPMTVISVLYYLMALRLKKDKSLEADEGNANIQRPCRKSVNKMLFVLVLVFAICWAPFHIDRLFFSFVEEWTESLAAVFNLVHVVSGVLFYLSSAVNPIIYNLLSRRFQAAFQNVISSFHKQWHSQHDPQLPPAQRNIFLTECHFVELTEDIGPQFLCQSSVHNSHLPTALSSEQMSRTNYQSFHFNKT
Description: (§1) A. Method and Materials for IGS-4 Transfected CHOGα16IGS4 cells.
(§2) The following materials were used in the experiments: Vector containing IGS4-DNA sequence (IGS4-pcDNA3.1); SuperFect Transfection Reagent (Qiagen): Nut-Mix F12 (Gibco) with 10% FCS, 0.028 mg/ml Gentamycin (Gibco); 0.22 mg/ml Hygromycin (Gibco).
(§3) Materials used for clone selection: Nut-Mix F12 with 10% FCS; 0.028 mg/ml Gentamycin; 0.22 mg/ml Hygromycin and 0.55 mg/ml Geneticin (Gibco).
(§4) The following method was applied: Transfection with SuperFect Transfection Reagent was carried out as described by the manufacturer (Qiagen). Cells were plated in 24-well plates to 50% confluence. Per well […] plasmid-DNA with 1 μl SuperFect Transfection Reagent was added. After 24 hours the medium was changed and transfected cell clones were selected by Geneticin-containing selection-medium. IGS4 expressing cell clones were characterized by RT-PCR and Northern Blot.
B. Method and Materials for FLIPR-Assay.
The method was performed as follows: Cells were seeded 24 hours or 48 hours prior to the experiment into black wall microplates. The cell density was […] cells/well for 48 hour incubation and […] cells/well for 24 hour incubation. All steps were done under sterile conditions.
In order to observe changes in intracellular calcium levels, cells must be ‘loaded’ with a calcium-sensitive fluorescent dye. This dye, called FLUO-4 (Molecular Probes) is excited at 488 nm, and emits light in the 500–560 nm range, only if a complex with calcium is formed. The dye was used at 4 μM final concentration. Pluronic acid was added to increase dye solubility and dye uptake into the cells. Probenicid, an anion exchange protein inhibitor, was added to the dye medium to increase dye retention in the cells.
The method was worked as follows: The 2 mM stock of dye was mixed with an equal volume of 20% (w/v) pluronic acid immediately before adding to the loading-Buffer. The growth-medium was aspirated out of the well without disturbing the confluent cell layer. 100 μl loading medium was dispensed into each well using a Multidrop (Labsystems). Cell were incubated in a 5% CO2, 37° C. incubator for 30 minutes. In order to calculate the, background fluorescence, some wells were not dye loaded. The background fluorescence in these wells results from autofluorescence of the cells. After dye loading, cell were washed three times with Wash-Buffer (automated Denley cell washer) to reduce the basal fluorescence to 20.000–25.000 counts above background. 100 l buffer was added and cell were incubated at 37° C. till start of the experiment. […]
The resulting CHOGα16-IGS4 cells were functionally screened on a Fluorometric Imaging Plate Reader (FLIPR) to measure mobilisation of intracellular calcium in response to putative peptide ligands. […]

IGS4A = biological target: T2, IGS4A (Homo sapiens, UniProt Q9GZQ4, A395T); experiment: FLIPR intracellular calcium mobilisation in CHOGα16-IGS4 cells (IGS4A); format: cell-based; conditions: range 10^−6–10^−12 M
T2 construct: expressed in transfected cells; host or cells: CHOGα16 (CHO cells stably expressing Gα16, Molecular Devices), transfected with IGS4-pcDNA3.1
T2 sequence (Q9GZQ4 whole entry A395T): as the sequence (Q9GZQ4 whole entry S298T/F315L/P383L/M388V/A395T, canonical isoform) above, with T298S, L315F, L383P, V388M counted along it
Description: as §1, §2, §3
as §4, with “IGS4 expressing cell clones were characterized by RT-PCR and Northern Blot.” left out
The method was worked as follows: The 2 mM stock of dye was mixed with an equal volume of 20% (w/v) pluronic acid immediately before adding to the loading-Buffer. […] In order to calculate the, background fluorescence, some wells were not dye loaded. The background fluorescence in these wells results from autofluorescence of the cells. After dye loading, cell were washed three times with Wash-Buffer (automated Denley cell washer) to reduce the basal fluorescence to 20.000–25.000 counts above background. […]

Substance | basal levels of intracellular cAMP (IGS4) | maximal activation of IGS4B (IGS4B) | IGS4-mediated calcium mobilisation in the FLIPR assay (IGS4B) | IGS4-mediated calcium mobilisation in the FLIPR assay (IGS4A)
neuromedin U-8 | not modulated | same maximal activation | induced specific IGS4-mediated calcium mobilisation | induced specific IGS4-mediated calcium mobilisation
neuromedin U-25 | – | same maximal activation | induced specific IGS4-mediated calcium mobilisation | induced specific IGS4-mediated calcium mobilisation

— US7151165B2, “Antibodies immunospecific for a novel human G-protein coupled receptor family” (priority 1999, dated 2006)
